The values that follow come from publication PMC8221234 (Chemical biology & drug design, 2009).

Structures are written as SMILES.

Assay [1] relates to eIF2α phosphorylation in NIH3T3 cells. Conditions: cited from earlier work.
Assay [2] has the same test system. The assay is described as follows: UV-induced eIF2α phosphorylation in NIH3T3 cells. The assay is classed as cell-based. Conditions: compared with MEFs, data not shown.

With `Oc1c2ccccc2c2c3c(cccc13)N=N2` [SP600125], the “Effect on eIF2α phosphorylation following UV irradiation (qualitative)” value in assay [1] is reported as “did not prevent the phosphorylation of eIF2α”. Moreover, the “Effect on UV-induced eIF2α phosphorylation in NIH3T3 cells (qualitative)” value in assay [2] is “does not prevent eIF2α phosphorylation”.
